Patent publication US7012060B1, “TNF receptor and steroid hormone in a combined therapy” (priority 1995, dated 2006)
Marks after values point to notes of the source that are not given here.

Key:
[1] = system: septic shock induced by lipopolysaccharides (LPS) alone; conditions: mice; cited from earlier work
[2] = system: septic shock induced by LPS + D-Galactosamine, in mice; assay: LPS+D-Galactosamine-induced septic shock model; type: in vivo, SPF female BALB/c inbred mice
Procedure: The experiments were carried out in vivo on mice. The septic shock was induced by an i.p. administration of a mixture of LPS (0.1 μg/mouse) and D-Galactosamine (18 mg/mouse).
The treatment schedule for r-hTBP-1 based on repeated administrations (the total dose was divided into 4 administrations given at time 0 and […] and 24 hours after), was adopted. CHO r-hTBP-1 was tested, alone or in combination with DHEA, at dose levels of 62.5 and 125 μg/mouse (total dose).
DHEA was tested both in a single administration injected i.p. one hour before and contemporaneously to the septic shock-inducing agent at doses encompassed between 100 and 2.000 μg/mouse and in repeated treatment with the total dose (250 μg/mouse) divided into 4 injections given within 24 hours.
The above treatment schedules of DHEA (doses from 250 to 1,500 μl g/mouse) were followed also in combination with r-hTBP-1 which was tested at the total dose varying from 62.5 to 125 μg/mouse (divided into 4 administrations).
SPF female BALB/c inbred mice, 6–8 weeks (about 18–20 g b.w.), from Charles River were used throughout the whole study after an acclimatisation period of at least 7 days.
Unless otherwise specified, in all the experiments the mice were randomly divided into groups of 10 animals each.
Both substances were dissolved in saline. The mixture of LPS (0.1 μg/mouse) and D-Galactosamine (18 mg/mouse) was prepared by mixing equal volumes of these substances. The mixture was subsequently injected to animals by the i.p. route. This dose was selected under precious experiments as that inducing around 80% mortality calculated as the number of dead vs. total number of mice for each croup. The lethality was monitored after 24, 48, 72 and 96 hours and at day 7 post-treatment.
The drug was diluted in saline and injected by repeated administrations, i.e. i.v. immediately before the inoculum of LPS plus D-Galactosamine and s.c. 3, 6 and 24 hours later.
The effects of DHEA, alone or in combination with r-hTBP-1, were assayed after single i.p. administrations at different times in respect to LPS+D-Galactosamine injection; in particular, it was administered 1 hour before and contemporaneously to the septic shock-inducing agent.
A repeated treatment schedule was also investigated in which DHEA was administered at time 0 (septic shock induction) and 3, 6 and 24 hours later. DHEA was initially vehicled in a mixture of 2.5% alcohol and 10% rabbit serum in saline. To improve the solubility and standardise the preparation, the steroid was successively dispersed in a mixture of 2.5% alcohol and 10% phospholipid emulsion in saline.
The primary end point was the survival rate at 48 hours after induction of septic shock. The comparison of the effects of each treatment group vs. controls and among treatment groups was effected by Fisher's exact test, one-tailed. The same comparison was also performed at the other time points. The results in each treatment group were expressed as percent survival.
In all the experiments, percent survival values were calculated using the survival Tables for the follow up studies (Armitage P. Cap. XIV. Tavole di sopravvivenza in Statistica Medica, Feltrinelli, Milano). The χ^2-test was applied to each observation time by comparing the DHEA+r-hTBP-1 groups to the other groups.

## C[C@]12CC[C@H](O)CC1=CC[C@@H]1[C@@H]2CC[C@]2(C)C(=O)CC[C@@H]12 [DHEA, Dehydroepiandrosterone]
[1]
  protection from septic shock: protecting mice from septic shock
[2]; DHEA 1.000 μg contemporaneously with LPS+D-Gal vs same dose 1 hour before
  protection: higher protection
[2]; DHEA 1.500 μg/mouse alone, 1 hour before
  survival rate: 40%
[2]; DHEA 2.000 μg/mouse, 1 hour before LPS+D-Galactosamine, all time points
  protective effects: complete protection
[2]; DHEA 100 μg/mouse i.p. 1 hour before LPS + D-Gal, saline 10% rabbit serum, 24 hrs, 1st exp
  % cumulative survival: 20%
[2]; DHEA 100 μg/mouse i.p. 1 hour before LPS + D-Gal, saline 10% rabbit serum, 48 hrs, 1st exp
  % cumulative survival: 20%
[2]; DHEA 100 μg/mouse i.p. 1 hour before LPS + D-Gal, saline 10% rabbit serum, 72 hrs, 1st exp
  % cumulative survival: 20%
[2]; DHEA 100 μg/mouse i.p. 1 hour before LPS + D-Gal, saline 10% rabbit serum, 96 hrs, 1st exp
  % cumulative survival: 20%
[2]; DHEA 250 μg/mouse alone at time 0, rabbit serum vehicle
  protection (survival): 30%
[2]; DHEA 250 μg/mouse divided into 4 inocula at 0, 3, 6 and 24 hours (group E), 48 hours
  survival rate: 40%
[2]; DHEA 250 μg/mouse i.p. at time 0, saline 10% rabbit serum, 24 hrs, 2nd exp.
  % cumulative survival: 20%
[2]; DHEA 250 μg/mouse i.p. at time 0, saline 10% rabbit serum, 48 hrs, 2nd exp.
  % cumulative survival: 20%
[2]; DHEA 250 μg/mouse i.p. at time 0, saline 10% rabbit serum, 72 hrs, 2nd exp.
  % cumulative survival: 20%
[2]; DHEA 250 μg/mouse i.p. at time 0, saline 10% rabbit serum, 96 hrs, 2nd exp.
  % cumulative survival: 20%
[2]; DHEA 250 μg/mouse single injection (group D), 48 hours
  survival rate: 30%
[2]; DHEA 500 μg/mouse i.p. 1 hour before LPS + D-Gal, saline 10% rabbit serum, 24 hrs, 1st exp
  % cumulative survival: 10%
[2]; DHEA 500 μg/mouse i.p. 1 hour before LPS + D-Gal, saline 10% rabbit serum, 48 hrs, 1st exp
  % cumulative survival: 10%
[2]; DHEA 500 μg/mouse i.p. 1 hour before LPS + D-Gal, saline 10% rabbit serum, 72 hrs, 1st exp
  % cumulative survival: 10%
[2]; DHEA 500 μg/mouse i.p. 1 hour before LPS + D-Gal, saline 10% rabbit serum, 96 hrs, 1st exp
  % cumulative survival: 10%
[2]; DHEA 500 μg/mouse i.p. at time 0, saline 10% rabbit serum, 24 hrs, 1st exp.
  % cumulative survival: 50%
[2]; DHEA 500 μg/mouse i.p. at time 0, saline 10% rabbit serum, 24 hrs, 2nd exp.
  % cumulative survival: 30%
[2]; DHEA 500 μg/mouse i.p. at time 0, saline 10% rabbit serum, 48 hrs, 1st exp.
  % cumulative survival: 40%
[2]; DHEA 500 μg/mouse i.p. at time 0, saline 10% rabbit serum, 48 hrs, 2nd exp.
  % cumulative survival: 30%
[2]; DHEA 500 μg/mouse i.p. at time 0, saline 10% rabbit serum, 72 hrs, 1st exp.
  % cumulative survival: 30%
[2]; DHEA 500 μg/mouse i.p. at time 0, saline 10% rabbit serum, 72 hrs, 2nd exp.
  % cumulative survival: 30%
[2]; DHEA 500 μg/mouse i.p. at time 0, saline 10% rabbit serum, 96 hrs, 1st exp.
  % cumulative survival: 30%
[2]; DHEA 500 μg/mouse i.p. at time 0, saline 10% rabbit serum, 96 hrs, 2nd exp.
  % cumulative survival: 30%
[2]; DHEA 750 μg/mouse i.p. at time 0, saline 10% rabbit serum, 24 hrs, 1st exp.
  % cumulative survival: 40%
[2]; DHEA 750 μg/mouse i.p. at time 0, saline 10% rabbit serum, 24 hrs, 2nd exp.
  % cumulative survival: 50%
[2]; DHEA 750 μg/mouse i.p. at time 0, saline 10% rabbit serum, 48 hrs, 1st exp.
  % cumulative survival: 40%
[2]; DHEA 750 μg/mouse i.p. at time 0, saline 10% rabbit serum, 48 hrs, 2nd exp.
  % cumulative survival: 50%
[2]; DHEA 750 μg/mouse i.p. at time 0, saline 10% rabbit serum, 72 hrs, 1st exp.
  % cumulative survival: 40%
[2]; DHEA 750 μg/mouse i.p. at time 0, saline 10% rabbit serum, 72 hrs, 2nd exp.
  % cumulative survival: 50%
[2]; DHEA 750 μg/mouse i.p. at time 0, saline 10% rabbit serum, 96 hrs, 1st exp.
  % cumulative survival: 40%
[2]; DHEA 750 μg/mouse i.p. at time 0, saline 10% rabbit serum, 96 hrs, 2nd exp.
  % cumulative survival: 50%
[2]; DHEA 1000 μg/mouse i.p. 1 hour before LPS + D-Gal, saline 10% rabbit serum, 24 hrs, 2nd exp
  % cumulative survival: 20%
[2]; DHEA 1000 μg/mouse i.p. 1 hour before LPS + D-Gal, saline 10% rabbit serum, 48 hrs, 2nd exp
  % cumulative survival: 20%
[2]; DHEA 1000 μg/mouse i.p. 1 hour before LPS + D-Gal, saline 10% rabbit serum, 72 hrs, 2nd exp
  % cumulative survival: 10%
[2]; DHEA 1000 μg/mouse i.p. 1 hour before LPS + D-Gal, saline 10% rabbit serum, 96 hrs, 2nd exp
  % cumulative survival: 0%
[2]; DHEA 1000 μg/mouse i.p. at time 0, saline 10% rabbit serum, 24 hrs, 1st exp.
  % cumulative survival: 80^a %
[2]; DHEA 1000 μg/mouse i.p. at time 0, saline 10% rabbit serum, 48 hrs, 1st exp.
  % cumulative survival: 60%
[2]; DHEA 1000 μg/mouse i.p. at time 0, saline 10% rabbit serum, 72 hrs, 1st exp.
  % cumulative survival: 60%
[2]; DHEA 1000 μg/mouse i.p. at time 0, saline 10% rabbit serum, 96 hrs, 1st exp.
  % cumulative survival: 60%
[2]; DHEA 1500 μg/mouse i.p. 1 hour before LPS + D-Gal, saline 10% rabbit serum, 24 hrs, 2nd exp
  % cumulative survival: 70^a %
